Here are results for 8 compounds from patent publication US11690850B2, “Inhibitors of receptor interacting protein kinase I for the treatment of disease” (Board of Regents, The University of Texas System, priority 2019, dated 2023).

Test [1] deals with human monocytic cell line U937. Briefly: Human U937 Cellular Necroptosis Assay. Type of test: cell-based. To be noted: U-937; U937 cells stimulated with 25 ng/mL human TNFalpha and 25 μM z-VAD-FMK, 22 hr, viability by Cell Titer-Glo 2.0; average value across multiple runs; read-out: hU937 IC50. For orientation: ATP-based viability assays read luminescence as a measure of living cells.

A further test addresses RIPK1 (Homo sapiens (Human), UniProt Q13546). Briefly: ADP-Glo Kinase Assay. It counts as biochemical. To be noted: 5 nM RIPK1 protein, 50 μM ATP, 6 hr reaction, average value across multiple runs. The gist of the method: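 ADP formed from ATP is measured by ADP-Glo luminescence with 5 nM RIPK1, preincubated 10 min with compound, then 50 μM ATP for 6 h. Buffer is 50 mM HEPES pH 7.5, 50 mM NaCl, 30 mM MgCl2, 1 mM DTT, 0.05% BSA, 0.02% CHAPS. IC50 comes from a four-parameter fit, averaged over runs.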
A general note: In ADP-Glo the light output rises with the ADP produced.

Chain of RIPK1 (Q13546 1-327): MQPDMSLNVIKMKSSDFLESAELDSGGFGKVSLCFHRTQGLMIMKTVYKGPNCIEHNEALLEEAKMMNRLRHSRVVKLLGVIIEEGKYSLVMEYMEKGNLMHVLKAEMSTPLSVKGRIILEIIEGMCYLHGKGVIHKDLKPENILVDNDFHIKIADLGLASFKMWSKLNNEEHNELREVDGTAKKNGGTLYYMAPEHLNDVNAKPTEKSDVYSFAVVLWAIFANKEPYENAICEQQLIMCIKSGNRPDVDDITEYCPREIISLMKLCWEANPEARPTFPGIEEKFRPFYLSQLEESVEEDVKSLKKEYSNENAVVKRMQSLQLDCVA

By IC50 is commonly meant the concentration needed to halve the response being measured. In the case of `Cc1c(Cl)c(=O)c(C(=O)NC2CCc3cc(Cl)ccc3N(C)C2=O)nn1-c1ccccc1` (stereo not shown) [Example 45, 5-Chloro-N-(7-chloro-1-methyl-2-oxo-2,3,4,5-tetrahydro-1H-benzo[b]azepin-3-yl)-6-methyl-4-oxo-1-phenyl-1,4-dihydropyridazine-3-carboxamide], the IC50 in test [1] came out at 72 nM; at RIPK1, 28 nM.
Take `Cc1cc(=O)c(C(=O)Nc2cccc(Cl)c2F)nn1-c1cccc(Cl)c1` [Example 17, N-(3-chloro-2-fluorophenyl)-1-(3-chlorophenyl)-6-methyl-4-oxo-1,4-dihydropyridazine-3-carboxamide]: the concentration for half-maximal inhibition (IC50) in test [1] was determined as 631 nM; on RIPK1, 52 nM.
As to `Cc1cc(=O)c(C(=O)Nc2cccc(Cl)c2F)nn1-c1cc(F)ccc1F` [Example 9, N-(3-chloro-2-fluorophenyl)-1-(2,5-difluorophenyl)-6-methyl-4-oxo-1,4-dihydropyridazine-3-carboxamide], the figures for the concentration for half-maximal inhibition (IC50) (in test [1]; on RIPK1) were 170 nM and 78 nM, respectively.
For the compound `O=C(NC1CCc2ccccc2NC1=O)c1nn(-c2ccccc2)c2ccccc2c1=O` (stereo not shown) [Example 70, 4-oxo-N-(2-oxo-2,3,4,5-tetrahydro-1H-benzo[b]azepin-3-yl)-1-phenyl-1,4-dihydrocinnoline-3-carboxamide], the 50% inhibitory concentration (IC50) amounted to 227 nM in test [1] and 28.9 nM at RIPK1.
Taken in the same sequence, the figures for `Cc1c(Cl)c(=O)c(C(=O)NC2CCc3cc(Cl)ccc3NC2=O)nn1-c1ccccc1` (stereo not shown) [Example 40, 5-Chloro-N-(7-chloro-2-oxo-2,3,4,5-tetrahydro-1H-benzo[b]azepin-3-yl)-6-methyl-4-oxo-1-phenyl-1,4-dihydropyridazine-3-carboxamide] were 47 nM and 36 nM.
Taken in the same sequence, the figures for `Cc1cc(=O)c(C(=O)Nc2cccc(Cl)c2F)nn1-c1ccccc1` [Example 1, N-(3-chloro-2-fluorophenyl)-6-methyl-4-oxo-1-phenyl-1,4-dihydropyridazine-3-carboxamide] were 136 nM and 32 nM.
Taken in the same sequence, the figures for `COc1cccc(-n2nc(C(=O)NC3CCc4ccccc4NC3=O)c(=O)cc2C)c1` (stereo not shown) [Example 67, 1-(3-methoxyphenyl)-6-methyl-4-oxo-N-(2-oxo-2,3,4,5-tetrahydro-1H-benzo[b]-azepin-3-yl)-1,4-dihydropyridazine-3-carboxamide] were 281 nM and 68.2 nM.
Turning to `Cc1cc(=O)c(C(=O)N[C@H]2COc3cc(C#N)ccc3N(C)C2=O)nn1-c1cccc(F)c1` [Example 61, (S)-N-(8-cyano-5-methyl-4-oxo-2,3,4,5-tetrahydrobenzo[b][1,4]oxazepin-3-yl)-1-(3-fluorophenyl)-6-methyl-4-oxo-1,4-dihydropyridazine-3-carboxamide], the figures for the IC50 (in test [1]; at RIPK1) were 88 nM and 57.4 nM, respectively.
